# Experimental data as given in paper PMC12384515 (2023).
# Key:
# Assay in all cases: fluorescent intercalator displacement
# Conditions in all cases: ethidium bromide (5 μM) displaced; DNA 10 μM/bp; per base
# [1] = test system: A5T5 (DNA, duplex) GGGAAAAATTTTTCCC
# [2] = test system: G5C5 (DNA, duplex) AAAGGGGGCCCCCTTT
# [3] = test system: (AT)5 (DNA, duplex) GGGATATATATATCCC
C50 [1] [µM],C50 [2] [µM],C50 [3] [µM],SMILES
2.40 ± 0.02,7.21 ± 0.63,2.30 ± 0.03,CC1=CC(=[N+](C)C)C=CC1=C(c1ccc(N(C)C)cc1C)c1ccc(N(C)C)cc1C
3.13 ± 0.01,3.36 ± 0.07,,CN(C)c1ccc([C+](c2ccc(N(C)C)c(-c3ccccc3)c2)c2ccc(N(C)C)c(-c3ccccc3)c2)cc1-c1ccccc1
,,2.75 ± 0.21,CN(C)c1ccc([C+](c2ccc(N(C)C)cc2)c2ccc(N(C)C)c(-c3ccccc3)c2)cc1
0.52 ± 0.01,0.88 ± 0.01,0.32 ± 0.02,CN(C)c1ccc([C+](c2ccc(N(C)C)cc2)c2ccc3cc(N(C)C)ccc3c2)cc1
